Experimental data: ChEMBL document CHEMBL3046489, “Synthesis of new, potent avermectin-like insecticidal agents” (Carbohydr Res, 2005)
Activity calls are given as the source filed them. The rule behind the calls is not given here.

Legend:
[1] = test system: Trichoplusia ni; experiment: Insecticidal activity against Trichoplusia ni (cabbage looper) assessed as mortality after 3 days by cabbage leaf dip bioassay; format: functional; parameters: concentration or dose not given beside the values
[2] = test system: Trichoplusia ni; experiment: Insecticidal activity against Trichoplusia ni (cabbage looper) assessed as mortality after 6 hr by cabbage leaf dip bioassay; format: functional, organism-based
[3] = Toxicity in Mus musculus ICR (mouse); format: organism-based; details: in vivo
[4] = test system: Trichoplusia ni; experiment: Insecticidal activity against Trichoplusia ni (cabbage looper) assessed as mortality after 2 days by cabbage leaf dip bioassay; format: functional, organism-based

SMILES | mortality [1] | Activity [2] | LD50 [3] | Activity [4]
CC[C@H](C)[C@H]1O[C@]2(C=C[C@@H]1C)C[C@@H]1C[C@@H](C/C=C(\C)[C@@H](O[C@H]3C[C@H](OC)[C@@H](O[C@@H]4C[C@@](C)(OC)[C@@H](O)[C@H](C)O4)[C@H](C)O3)[C@@H](C)/C=C/C=C3\CO[C@@H]4[C@H](O)C(C)=C[C@@H](C(=O)O1)[C@]34O)O2 | 93% | Active | 17.5 mg/kg | 
CC[C@H](C)[C@H]1O[C@]2(C=C[C@@H]1C)C[C@@H]1C[C@@H](C/C=C(\C)[C@@H](O[C@H]3C[C@H](OC)[C@@H](O[C@@H]4C[C@@](C)(O)[C@@H](OC(C)=O)[C@H](C)O4)[C@H](C)O3)[C@@H](C)/C=C/C=C3\CO[C@@H]4[C@H](O)C(C)=C[C@@H](C(=O)O1)[C@]34O)O2 | 61% |  |  | 
CC[C@H](C)[C@H]1O[C@]2(C=C[C@@H]1C)C[C@@H]1C[C@@H](C/C=C(\C)[C@@H](O[C@H]3C[C@H](OC)[C@@H](O[C@H]4C[C@H](OC)[C@@H](O)[C@H](C)O4)[C@H](C)O3)[C@@H](C)/C=C/C=C3\CO[C@@H]4[C@H](O)C(C)=C[C@@H](C(=O)O1)[C@]34O)O2 [ABAMECTIN COMPONENT B1A] | 53% |  |  | Active
CC[C@H](C)[C@H]1O[C@]2(C=C[C@@H]1C)C[C@@H]1C[C@@H](C/C=C(\C)[C@@H](O[C@H]3C[C@H](OC)[C@@H](O[C@H]4O[C@@H](C)[C@@H](O)[C@@H](O)[C@@H]4O)[C@H](C)O3)[C@@H](C)/C=C/C=C3\CO[C@@H]4[C@H](O)C(C)=C[C@@H](C(=O)O1)[C@]34O)O2 | 37% |  |  | 
CC[C@H](C)[C@H]1O[C@]2(C=C[C@@H]1C)C[C@@H]1C[C@@H](C/C=C(\C)[C@@H](O[C@H]3C[C@H](OC)[C@@H](O[C@H]4O[C@@H](C)[C@@H](OC)[C@@H](OC)[C@@H]4OC)[C@H](C)O3)[C@@H](C)/C=C/C=C3\CO[C@@H]4[C@H](O)C(C)=C[C@@H](C(=O)O1)[C@]34O)O2 | 93% | Active | 87.5 mg/kg | 
CC[C@H](C)[C@H]1O[C@]2(C=C[C@@H]1C)C[C@@H]1C[C@@H](C/C=C(\C)[C@@H](O[C@H]3C[C@H](OC)[C@@H](O[C@@H]4C[C@@](C)(OC)[C@@H](OC(C)=O)[C@H](C)O4)[C@H](C)O3)[C@@H](C)/C=C/C=C3\CO[C@@H]4[C@H](O)C(C)=C[C@@H](C(=O)O1)[C@]34O)O2 | 72% |  |  | 
CC[C@H](C)[C@H]1O[C@]2(C=C[C@@H]1C)C[C@@H]1C[C@@H](C/C=C(\C)[C@@H](O[C@H]3C[C@H](OC)[C@@H](O[C@@H]4C[C@@H](OC)[C@@H](NC)[C@@H](C)O4)[C@H](C)O3)[C@@H](C)/C=C/C=C3\CO[C@@H]4[C@H](O)C(C)=C[C@@H](C(=O)O1)[C@]34O)O2.O=C(O)c1ccccc1 | 90% |  |  | Active
CC[C@H](C)[C@H]1O[C@]2(C=C[C@@H]1C)C[C@@H]1C[C@@H](C/C=C(\C)[C@@H](O[C@H]3C[C@H](OC)[C@@H](O[C@@H]4C[C@@](C)(OC)[C@@H](OC)[C@H](C)O4)[C@H](C)O3)[C@@H](C)/C=C/C=C3\CO[C@@H]4[C@H](O)C(C)=C[C@@H](C(=O)O1)[C@]34O)O2 | 85% |  |  | 
